# Source: US20110152362A1, “METHODS OF TREATING EPILEPTOGENESIS AND EPILEPSY” (priority 2004, published 2011)
# Marks after values point to notes of the source that are not given here.
# Assays:
# [1] = test system: rats subjected to li-pilo SE; assay: Example 2: quantification of cell densities 14 days after li-pilo SE; conditions: 14 days after li-pilo SE;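 further: Thionine-stained 20 µm brain sections, neurons with cell bodies above 10 µm counted, value is the mean of 12 fields per structure from three adjacent sections, both sides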
# Method: All rats received lithium chloride (3 meq/kg, i.p., Sigma, St Louis, Mo., U.S.A.) and about 20 h later, all animals received also methylscopolamine bromide (1 mg/kg, s.c., Sigma) that was administered to limit the peripheral effects of the convulsant. […] The effects of increasing doses of TC were studied in 5 groups of rats. […] The control group received vehicle instead of pilocarpine and TC.
# For neuronal counting, animals were deeply anesthetized with 1.8 g/kg pentobarbital (Dolethal®, Vetoquinol, Lure, France). Brains were then removed and frozen. Serial 20 μm slices were cut in a cryostat, air-dried during several days before thionine staining. […] The grid of counting was placed on a well defined area of the cerebral structure of interest and counting was carried out with a microscopic enlargement of 200- or 400-fold defined for each single cerebral structure. Cell counts were performed twice on each side of three adjacent sections for each region by a single observer unaware of the animal's treatment. The number of cells obtained in the 12 counted fields in each cerebral structure was averaged. This procedure was used to minimize the potential errors that could result from double counting leading to overestimation of cell numbers. […] Counts involved only neurons with cell bodies larger than 10 μm. Cells with small cell bodies were considered as glial cells and were not counted.
# For neuronal damage and epileptogenesis, statistical analysis between groups was performed by means of a one-way analysis of variance followed by a post-hoc Dunnett or Fisher test using the Statistica software.
# [2] = Example 3 study 2: repeated oral dose (q12h, 1 wk) pharmacokinetics in healthy men; type: in vivo, human
# Method: Two single-center, placebo-controlled, double-blind, ascending-dose studies were conducted in healthy men ≧18 and ≦45 yrs. In study 1 (N=70), subjects were randomly assigned to a single dose of Test Compound (TC) or placebo. Escalated doses were received as 100, 250, 400, 750, 1000, 1250, and 1500 mg. PK parameters were estimated from plasma and urine samples collected up to 3 days post dose. Study 2 (N=53) evaluated the PK of repeated doses of Test Compound (TC) in 4 dose groups (100, 250, 500, or 750 mg). Within each group, 12 subjects were assigned to q12h treatment with drug or placebo for 1 wk and were crossed over after a 14-day washout period. PK parameters were estimated from plasma and urine samples on days 1 and 7.
# [3] = repeated doses q12h, 100-750 mg
smiles,measurement,setting,value
NC(=O)OC[C@@H](O)c1ccccc1Cl [TC],number of neuronal cell bodies: Hippocampus CA1 area,[1]; pilo-TC60 (TC 60 mg/kg),31.9 ± 44**°°
same,number of neuronal cell bodies: Hippocampus CA3 area,[1]; pilo-TC60 (TC 60 mg/kg),31.6 ± 1.4
same,number of neuronal cell bodies: Hippocampus Hilus,[1]; pilo-TC60 (TC 60 mg/kg),32.8 ± 3.3
same,number of neuronal cell bodies: Thalamus Central medial,[1]; pilo-TC60 (TC 60 mg/kg),83.7 ± 9.6
same,"number of neuronal cell bodies: Thalamus Dorsolateral, medial, dorsal",[1]; pilo-TC60 (TC 60 mg/kg),77.5 ± 3.9**°°
same,"number of neuronal cell bodies: Thalamus Dorsolateral, ventral lateral",[1]; pilo-TC60 (TC 60 mg/kg),56.7 ± 8.7
same,number of neuronal cell bodies: Thalamus Mediodorsal central,[1]; pilo-TC60 (TC 60 mg/kg),24.1 ± 1**^
same,number of neuronal cell bodies: Thalamus Mediodorsal lateral,[1]; pilo-TC60 (TC 60 mg/kg),18.9 ± 0.6
same,number of neuronal cell bodies: Thalamus Mediodorsal medial,[1]; pilo-TC60 (TC 60 mg/kg),19.1 ± 2.6
same,number of neuronal cell bodies: Amygdala Basolateral,[1]; pilo-TC90 (TC 90 mg/kg),40.7 ± 1.6°°
same,"number of neuronal cell bodies: Amygdala Medial, dorsal anterior",[1]; pilo-TC90 (TC 90 mg/kg),72.2 ± 5.7°°
same,"number of neuronal cell bodies: Amygdala Medial, ventral posterior",[1]; pilo-TC90 (TC 90 mg/kg),30.7 ± 3.7°°
same,"number of neuronal cell bodies: Cerebral cortex Entorhinal, layer II, dorsal",[1]; pilo-TC90 (TC 90 mg/kg),26.3 ± 0.9
same,"number of neuronal cell bodies: Cerebral cortex Entorhinal, layer II, ventral",[1]; pilo-TC90 (TC 90 mg/kg),25.4 ± 1.1°^
same,"number of neuronal cell bodies: Cerebral cortex Entorhinal, layer III/IV, dorsal",[1]; pilo-TC90 (TC 90 mg/kg),26.7 ± 0.8
same,"number of neuronal cell bodies: Cerebral cortex Entorhinal, layer III/IV, ventral",[1]; pilo-TC90 (TC 90 mg/kg),23.7 ± 1.5°°
same,"number of neuronal cell bodies: Cerebral cortex Piriform, layer II, dorsal",[1]; pilo-TC90 (TC 90 mg/kg),32.4 ± 1.1°°
same,"number of neuronal cell bodies: Cerebral cortex Piriform, layer II, ventral",[1]; pilo-TC90 (TC 90 mg/kg),18.4 ± 4.0°°
same,"number of neuronal cell bodies: Cerebral cortex Piriform, layer III",[1]; pilo-TC90 (TC 90 mg/kg),9 ± 3.0°°
same,number of neuronal cell bodies: Hippocampus CA1 area,[1]; pilo-TC90 (TC 90 mg/kg),47.7 ± 6.6*°
same,number of neuronal cell bodies: Hippocampus CA3 area,[1]; pilo-TC90 (TC 90 mg/kg),35.1 ± 2.9
same,number of neuronal cell bodies: Hippocampus Hilus,[1]; pilo-TC90 (TC 90 mg/kg),37.5 ± 3.1
same,number of neuronal cell bodies: Thalamus Central medial,[1]; pilo-TC90 (TC 90 mg/kg),88.2 ± 8.5^
same,"number of neuronal cell bodies: Thalamus Dorsolateral, medial, dorsal",[1]; pilo-TC90 (TC 90 mg/kg),79.4 ± 3.1**°°
same,"number of neuronal cell bodies: Thalamus Dorsolateral, ventral lateral",[1]; pilo-TC90 (TC 90 mg/kg),71.8 ± 5.3°°*
same,number of neuronal cell bodies: Thalamus Mediodorsal central,[1]; pilo-TC90 (TC 90 mg/kg),27.4 ± 1.5^
same,number of neuronal cell bodies: Thalamus Mediodorsal lateral,[1]; pilo-TC90 (TC 90 mg/kg),22 ± 1.2*°
same,number of neuronal cell bodies: Thalamus Mediodorsal medial,[1]; pilo-TC90 (TC 90 mg/kg),23.1 ± 2.8°°
same,number of neuronal cell bodies: Amygdala Basolateral,[1]; pilo-TC120 (TC 120 mg/kg),42.7 ± 1.3°°
same,"number of neuronal cell bodies: Amygdala Medial, dorsal anterior",[1]; pilo-TC120 (TC 120 mg/kg),80.2 ± 2.6°°
same,"number of neuronal cell bodies: Amygdala Medial, ventral posterior",[1]; pilo-TC120 (TC 120 mg/kg),34.7 ± 1.7°°
same,"number of neuronal cell bodies: Cerebral cortex Entorhinal, layer II, dorsal",[1]; pilo-TC120 (TC 120 mg/kg),27.3 ± 0.5°°
same,"number of neuronal cell bodies: Cerebral cortex Entorhinal, layer II, ventral",[1]; pilo-TC120 (TC 120 mg/kg),25.1 ± 0.6^
same,"number of neuronal cell bodies: Cerebral cortex Entorhinal, layer III/IV, dorsal",[1]; pilo-TC120 (TC 120 mg/kg),26.4 ± 0.7°°
same,"number of neuronal cell bodies: Cerebral cortex Entorhinal, layer III/IV, ventral",[1]; pilo-TC120 (TC 120 mg/kg),24.5 ± 1.4°°
same,"number of neuronal cell bodies: Cerebral cortex Piriform, layer II, dorsal",[1]; pilo-TC120 (TC 120 mg/kg),35.2 ± 1.1°°
same,"number of neuronal cell bodies: Cerebral cortex Piriform, layer II, ventral",[1]; pilo-TC120 (TC 120 mg/kg),30.5 ± 1.3°°
same,"number of neuronal cell bodies: Cerebral cortex Piriform, layer III",[1]; pilo-TC120 (TC 120 mg/kg),15 ± 2.2°°
same,number of neuronal cell bodies: Hippocampus CA1 area,[1]; pilo-TC120 (TC 120 mg/kg),65.5 ± 2.9°°
same,number of neuronal cell bodies: Hippocampus CA3 area,[1]; pilo-TC120 (TC 120 mg/kg),39.8 ± 1.5
same,number of neuronal cell bodies: Hippocampus Hilus,[1]; pilo-TC120 (TC 120 mg/kg),44.8 ± 2.9
same,number of neuronal cell bodies: Thalamus Central medial,[1]; pilo-TC120 (TC 120 mg/kg),108.2 ± 6.6° ^
same,"number of neuronal cell bodies: Thalamus Dorsolateral, medial, dorsal",[1]; pilo-TC120 (TC 120 mg/kg),89.8 ± 3.7*°
same,"number of neuronal cell bodies: Thalamus Dorsolateral, ventral lateral",[1]; pilo-TC120 (TC 120 mg/kg),79.0 ± 4.7°°
same,number of neuronal cell bodies: Thalamus Mediodorsal central,[1]; pilo-TC120 (TC 120 mg/kg),29.9 ± 1.7°^
same,number of neuronal cell bodies: Thalamus Mediodorsal lateral,[1]; pilo-TC120 (TC 120 mg/kg),24.4 ± 1.1°°
same,number of neuronal cell bodies: Thalamus Mediodorsal medial,[1]; pilo-TC120 (TC 120 mg/kg),28.6 ± 0.8°°
same,Mean CLR relative to mean oral clearance,[2]; healthy men,< 5 % of the mean oral clearance
same,Tmax at 1 wk,"[2]; male, human, plasma, oral, repeated doses q12h, 100-750 mg",1.3 to 1.8 h
same,half-life at 1 wk,"[2]; male, human, plasma, oral, repeated doses q12h, 100-750 mg, read-out: mean t1/2 at steady state",11.9 to 12.8 h
same,accumulation: Cmax and AUC0-12 on day 7 vs. day 1,"[2]; q12h administration, listed as Test Compound",about two-fold
same,Steady-state Cmax and AUC0-12 dose dependence,[2]; repeated doses 100-750 mg,increased in proportion to the dose
same,mean CL/F at steady state,[2]; [3],3.40 to 3.78 L/h
same,time for plasma concentrations to reach steady state,[2]; [3],3 to 4 days
same,linearity of PK,"[2]; single (100-1500 mg) and repeated (100-750 mg bid) doses, healthy adult men",linear
